ChEMBL document CHEMBL5303573, “Mapping human microbiome drug metabolism by gut bacteria and their genes” (Nature, 2019)

Key:
[1] = The drug is tested on Eubacterium rectale strain: ATCC33656 for biotransformation. The drug concentrations were measured before and after a 12-h incubation by liquid-chromatography-coupled mass spectrometry (LC–MS); settings: agathobacter rectalis, 2 µM
[2] = The drug is tested on Bacteroides uniformis strain: ATCC8492 for biotransformation. The drug concentrations were measured before and after a 12-h incubation by liquid-chromatography-coupled mass spectrometry (LC–MS); settings: 2 µM
[3] = The drug is tested on Blautia hansenii strain: DSM20583 for biotransformation. The drug concentrations were measured before and after a 12-h incubation by liquid-chromatography-coupled mass spectrometry (LC–MS); settings: 2 µM
[4] = The drug is tested on Bacteroides dorei strain: DSM17855 for biotransformation. The drug concentrations were measured before and after a 12-h incubation by liquid-chromatography-coupled mass spectrometry (LC–MS); settings: phocaeicola dorei, 2 µM
[5] = The drug is tested on Enterococcus faecalis strain: V583 for biotransformation. The drug concentrations were measured before and after a 12-h incubation by liquid-chromatography-coupled mass spectrometry (LC–MS); settings: 2 µM
[6] = The drug is tested on Bacteroides cellulosilyticus strain: DSM14838 for biotransformation. The drug concentrations were measured before and after a 12-h incubation by liquid-chromatography-coupled mass spectrometry (LC–MS); settings: 2 µM
[7] = The drug is tested on Blautia luti strain: DSM14534 for biotransformation. The drug concentrations were measured before and after a 12-h incubation by liquid-chromatography-coupled mass spectrometry (LC–MS); type: ADME; design: dose 2 uM, timepoint 0 vs 12 hours; settings: 2 µM
[8] = The drug is tested on Anaerotruncus colihominis strain: DSM17241 for biotransformation. The drug concentrations were measured before and after a 12-h incubation by liquid-chromatography-coupled mass spectrometry (LC–MS); settings: 2 µM
[9] = The drug is tested on Bacteroides xylanisolvens strain: DSM18836 for biotransformation. The drug concentrations were measured before and after a 12-h incubation by liquid-chromatography-coupled mass spectrometry (LC–MS); settings: 2 µM
[10] = The drug is tested on Providencia stuartii strain: ATCC25827 for biotransformation. The drug concentrations were measured before and after a 12-h incubation by liquid-chromatography-coupled mass spectrometry (LC–MS); settings: 2 µM
[11] = The drug is tested on Collinsella aerofaciens strain: ATCC25986 for biotransformation. The drug concentrations were measured before and after a 12-h incubation by liquid-chromatography-coupled mass spectrometry (LC–MS); settings: 2 µM
[12] = bacteroides thetaiotaomicron, 12 h, 2 µM
Description: The drug is tested on Bacteroides thetaiotaomicron strain: VPI-5482 for biotransformation. The drug concentrations were measured before and after a 12-h incubation by liquid-chromatography-coupled mass spectrometry (LC–MS)

[13] = The drug is tested on Bifidobacterium breve strain: DSM20213 for biotransformation. The drug concentrations were measured before and after a 12-h incubation by liquid-chromatography-coupled mass spectrometry (LC–MS); settings: 2 µM
[14] = The drug is tested on Clostridium scindens strain: ATCC35704 for biotransformation. The drug concentrations were measured before and after a 12-h incubation by liquid-chromatography-coupled mass spectrometry (LC–MS); settings: 2 µM
[15] = anaerostipes sp., 12 h, 2 µM
Description: The drug is tested on Anaerostipes sp. strain: fecal isolate for biotransformation. The drug concentrations were measured before and after a 12-h incubation by liquid-chromatography-coupled mass spectrometry (LC–MS)

[16] = The drug is tested on Collinsella intestinalis strain: DSM13280 for biotransformation. The drug concentrations were measured before and after a 12-h incubation by liquid-chromatography-coupled mass spectrometry (LC–MS); settings: 2 µM
[17] = The drug is tested on Bifidobacterium longum subsp. Infantis strain: CCUG52486 for biotransformation. The drug concentrations were measured before and after a 12-h incubation by liquid-chromatography-coupled mass spectrometry (LC–MS); settings: 2 µM
[18] = The drug is tested on Parabacteroides merdae strain: ATCC43184 for biotransformation. The drug concentrations were measured before and after a 12-h incubation by liquid-chromatography-coupled mass spectrometry (LC–MS); settings: 2 µM
[19] = The drug is tested on Bifidobacterium ruminantium strain: fecal isolate for biotransformation. The drug concentrations were measured before and after a 12-h incubation by liquid-chromatography-coupled mass spectrometry (LC–MS); settings: 2 µM
[20] = The drug is tested on Bacteroides fragilis strain: HMW615 for biotransformation. The drug concentrations were measured before and after a 12-h incubation by liquid-chromatography-coupled mass spectrometry (LC–MS); settings: 2 µM

SMILES	Bacterial Biotransformation [1]	Bacterial Biotransformation [2]	Bacterial Biotransformation [3]	Bacterial Biotransformation [4]	Bacterial Biotransformation [5]	Bacterial Biotransformation [6]	Bacterial Biotransformation [7]	Bacterial Biotransformation [8]	Bacterial Biotransformation [9]	Bacterial Biotransformation [10]	Bacterial Biotransformation [11]	Bacterial Biotransformation [12]	Bacterial Biotransformation [13]	Bacterial Biotransformation [14]	Bacterial Biotransformation [15]	Bacterial Biotransformation [16]	Bacterial Biotransformation [17]	Bacterial Biotransformation [18]	Bacterial Biotransformation [19]	Bacterial Biotransformation [20]
CCN(CC)C(C)CN1c2ccccc2Sc2ccccc21 (centres undefined) [ETHOPROPAZINE]	Compound NOT metabolized	Compound metabolized	Compound metabolized	Compound metabolized	Compound NOT metabolized	Compound NOT metabolized	Compound NOT metabolized	Compound NOT metabolized	Compound metabolized	Compound metabolized	Compound NOT metabolized	Compound metabolized	Compound NOT metabolized	Compound NOT metabolized	Compound NOT metabolized	Compound NOT metabolized	–	–	–	–
CC(C)c1c(CN(C)C(C)Cc2ccccc2)n(C)n(-c2ccccc2)c1=O (centres undefined) [FAMPROFAZONE]	Compound NOT metabolized	Compound metabolized	Compound metabolized	Compound metabolized	Compound NOT metabolized	Compound metabolized	Compound NOT metabolized	–	Compound metabolized	Compound NOT metabolized	Compound metabolized	Compound metabolized	Compound NOT metabolized	Compound NOT metabolized	Compound metabolized	–	Compound NOT metabolized	Compound metabolized	–	–
OC(Cn1cncn1)(Cn1cncn1)c1ccc(F)cc1F [FLUCONAZOLE]	–	Compound metabolized	Compound metabolized	Compound metabolized	Compound NOT metabolized	Compound NOT metabolized	Compound NOT metabolized	Compound metabolized	Compound metabolized	–	Compound NOT metabolized	Compound metabolized	Compound NOT metabolized	Compound metabolized	Compound NOT metabolized	Compound NOT metabolized	Compound NOT metabolized	Compound NOT metabolized	Compound metabolized	–
C#C[C@]1(O)CC[C@H]2[C@@H]3CCC4=CC(=O)CC[C@@H]4[C@H]3CC[C@@]21CC [LEVONORGESTREL]	Compound NOT metabolized	Compound metabolized	–	Compound metabolized	–	Compound metabolized	Compound NOT metabolized	Compound NOT metabolized	Compound metabolized	Compound NOT metabolized	Compound NOT metabolized	–	Compound NOT metabolized	Compound NOT metabolized	Compound NOT metabolized	Compound NOT metabolized	–	Compound metabolized	Compound NOT metabolized	Compound metabolized
CCN(CC)CCNC(=O)c1cc(Cl)c(N)cc1OC [METOCLOPRAMIDE]	Compound NOT metabolized	Compound NOT metabolized	–	Compound NOT metabolized	Compound NOT metabolized	Compound NOT metabolized	Compound NOT metabolized	Compound NOT metabolized	Compound NOT metabolized	Compound NOT metabolized	Compound NOT metabolized	Compound NOT metabolized	Compound NOT metabolized	Compound NOT metabolized	Compound NOT metabolized	Compound NOT metabolized	Compound NOT metabolized	Compound NOT metabolized	Compound NOT metabolized	Compound NOT metabolized
COc1ccccc1N1CCN(CC(O)COc2cccc3ccccc23)CC1 (centres undefined) [NAFTOPIDIL]	Compound NOT metabolized	Compound NOT metabolized	Compound NOT metabolized	Compound NOT metabolized	Compound NOT metabolized	Compound NOT metabolized	Compound NOT metabolized	Compound NOT metabolized	Compound NOT metabolized	Compound NOT metabolized	Compound NOT metabolized	Compound NOT metabolized	Compound NOT metabolized	Compound NOT metabolized	Compound NOT metabolized	Compound NOT metabolized	Compound NOT metabolized	Compound NOT metabolized	–	–
C=CCN1CC[C@]23c4c5ccc(O)c4O[C@H]2C(=O)CC[C@@]3(O)[C@H]1C5 [NALOXONE]	–	Compound metabolized	Compound metabolized	Compound metabolized	–	Compound NOT metabolized	Compound NOT metabolized	Compound NOT metabolized	Compound metabolized	Compound NOT metabolized	Compound NOT metabolized	Compound metabolized	Compound NOT metabolized	–	Compound NOT metabolized	Compound NOT metabolized	Compound NOT metabolized	–	Compound NOT metabolized	–
CN(C(=O)CN(CCO)CC(=O)N(C)C(C)(C)Cc1ccccc1)C(C)(C)Cc1ccccc1 [OXETHAZAINE]	–	–	Compound NOT metabolized	–	Compound NOT metabolized	Compound NOT metabolized	Compound NOT metabolized	Compound NOT metabolized	–	Compound NOT metabolized	Compound NOT metabolized	Compound NOT metabolized	Compound NOT metabolized	Compound NOT metabolized	Compound NOT metabolized	Compound NOT metabolized	Compound NOT metabolized	Compound NOT metabolized	Compound NOT metabolized	–
CC(=O)CCCCn1c(=O)c2c(ncn2C)n(C)c1=O [PENTOXIFYLLINE]	Compound NOT metabolized	Compound NOT metabolized	Compound NOT metabolized	Compound NOT metabolized	Compound NOT metabolized	Compound NOT metabolized	Compound NOT metabolized	Compound NOT metabolized	Compound NOT metabolized	Compound NOT metabolized	Compound NOT metabolized	Compound NOT metabolized	Compound NOT metabolized	–	Compound NOT metabolized	Compound NOT metabolized	Compound NOT metabolized	Compound NOT metabolized	–	–
